# Measurements reported in patent publication US20100063006A1, “COMPOSITIONS AND METHODS TO REDUCE FAT AND RETRACT SKIN” (American Network of Lipolysis, LLC, priority 2006, published 2010).
# Where a name gives a salt, the structure may show the parent alone.
# Assays:
# [1] = nausea, vomiting, diarrhea, flushing, sweating, bradycardia; cited from earlier work
# [2] = tested on: cultured human adipocytes; assay: In vitro lipolysis assays (basal lipolysis rate, triglyceride detection) in cultured human adipocytes; assay type: cell-based; details: adipocytes incubated 12-14 hours in test composition; FIG. 8
# Procedure: Lipolysis induced in cultured human adipocytes by certain embodiments of the inventive injectable compositions for fat reduction and their constituent components was assayed in vitro under controlled conditions.
# Cells utilized for the in vitro assays were obtained from five different dermolipectomy specimens. Preadipocytes were cultured in differentiation media over 14 days to produce adipocytes incubated between 12-14 hours in each of 12 test solutions. Each of the cell lines incubated in each of the 12 test solutions were split and introduced into four in vitro assays.
# Cell lines were incubated in each of the following compositions: • 1. Phosphatidylcholine 25.6 milligrams per milliliter (mg/mL)/Deoxycholate 24.8 mg/mL, Benzyl Alcohol 25.6 mg/mL, ISUPREL 8 mg/mL, and Ropivacaine 5 mg/mL. • 2. Phosphatidylcholine 24.0 mg/mL/Deoxycholate 19.8 mg/mL, Benzyl Alcohol 25.6 mg/mL, ISUPREL 8 mg/mL, and Ropivacaine 5 mg/mL. • 3. Phosphatidylcholine 50.0 mg/mL/Deoxycholate 42.0 mg/mL. • 4. Deoxycholate 10.0 mg/mL. • 5. Phosphatidylcholine 45.0 mg/mL/Deoxycholate 42.0 mg/mL. • 6. Phosphatidylcholine 53.0 mg/mL/Deoxycholate 42.0 mg/mL. • 7. Phosphatidylcholine 50 mg/mL in mineral oil. • 8. Deoxycholate 24.8 mg/mL. • 9. Benzyl alcohol 25.6 mg/mL. • 10. ISUPREL 8.0 mg/mL. • 11. Ropivacaine 5.0 mg/mL. • 12. Vitamin B complex and pentoxyffline • 13. Control--Saline Solution. […]
# B. Basal Lipolysis Rate. Free lipid in collected supernatant was quantified using a Lipolyis assay available from Zan-Bio, Catalog No. LIP-1 to measure released glycerol. […] The quinoneimine dye has an absorbance maximum at 540 nanometers. The increase in absorbance at 540 nanometers is directly proportionate to glycerol concentration in the supernatant.
# D. Triglyceride Detection. The amount of triglyceride was quantified by measurement of glycerol released by cell lysis into the supernatant utilizing a triglyceride assay kit available from Zen-Bio, Catalog No. TG-1-NC. There is a molar equivalent of triglyceride for each mole of glycerol detected.
Molecule,total administered amount of PC above which cholinergic side effects occur [1],lipolytic action (free lipids) compared with the saline control [2]
phosphatidylcholine [PC],exceeds 2000 mg per treatment,–
"CC(C)NCC(O)c1ccc(O)c(O)c1 (stereo not shown) [Test composition no. 10, isoproterenol hydrochloride]",–,do not appear to have lipolytic action greater than the control
"CCCN1CCCC[C@H]1C(=O)Nc1c(C)cccc1C [Test composition no. 11, Ropivacaine]",–,do not appear to have lipolytic action greater than the control
"OCc1ccccc1 [Test composition no. 9, Benzyl alcohol]",–,do not appear to have lipolytic action greater than the control
